Biological target: T1, recombinant human C-proteinase (Homo sapiens, UniProt P13497)
T1 sequence (P13497 121-986): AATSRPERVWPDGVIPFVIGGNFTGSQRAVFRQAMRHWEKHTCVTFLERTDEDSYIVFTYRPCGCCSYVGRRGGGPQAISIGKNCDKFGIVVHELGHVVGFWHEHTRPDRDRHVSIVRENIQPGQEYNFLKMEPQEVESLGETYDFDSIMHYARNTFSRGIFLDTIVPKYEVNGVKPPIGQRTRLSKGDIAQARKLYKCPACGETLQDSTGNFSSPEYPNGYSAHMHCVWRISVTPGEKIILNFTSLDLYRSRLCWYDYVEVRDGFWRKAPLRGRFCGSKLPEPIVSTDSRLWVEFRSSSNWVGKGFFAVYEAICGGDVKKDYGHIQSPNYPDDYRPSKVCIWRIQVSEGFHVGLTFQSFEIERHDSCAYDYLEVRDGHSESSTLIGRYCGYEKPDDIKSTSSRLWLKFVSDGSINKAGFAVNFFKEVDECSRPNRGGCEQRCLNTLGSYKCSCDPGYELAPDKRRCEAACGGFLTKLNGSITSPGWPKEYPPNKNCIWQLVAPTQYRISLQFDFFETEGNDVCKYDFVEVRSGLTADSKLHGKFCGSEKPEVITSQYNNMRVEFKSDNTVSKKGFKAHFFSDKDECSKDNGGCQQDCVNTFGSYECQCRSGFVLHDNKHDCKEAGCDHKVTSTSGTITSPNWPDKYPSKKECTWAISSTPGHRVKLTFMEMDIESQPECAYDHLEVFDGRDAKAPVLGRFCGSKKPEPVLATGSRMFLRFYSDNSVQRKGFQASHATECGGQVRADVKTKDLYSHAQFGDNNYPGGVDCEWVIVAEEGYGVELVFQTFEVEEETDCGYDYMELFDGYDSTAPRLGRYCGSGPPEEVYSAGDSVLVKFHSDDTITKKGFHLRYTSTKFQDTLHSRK
Assay: C-Proteinase IC50 assay, fluorogenic peptide
Type: biochemical
Conditions: 50 μM fluorogenic peptide, pH 7.6, 4 hours at 37° C., fluorescence, read-out: C-Proteinase Inhibitor IC50
Protocol: The following assay may be used to determine the level of activity and effect of the different compounds of the present invention on C-proteinase activity. […] The reaction proceeded for 4 hours at 37° C. and the fluorescence was measured using a Bio-Tek Fl-600.

SMILES	IC50
O=C(CCCC1C(=O)N(C23CC4CC(CC(C4)C2)C3)C(=O)N1Cc1ccccc1O)NO (stereo not drawn) [Compound 155]	270 nM
O=C(CCCC1C(=O)N(C23CC4CC(CC(C4)C2)C3)C(=O)N1Cc1cc(O)ccc1O)NO (stereo not drawn) [Compound 137]	59 nM
O=C(CCCC1C(=O)N(C23CC4CC(CC(C4)C2)C3)C(=O)N1Cc1cccc2c1OCO2)NO (stereo not drawn) [Compound 179]	230 nM
O=C(CCCC1C(=O)N(C23CC4CC(CC(C4)C2)C3)C(=O)N1CC1CC2C=CC1C2)NO (stereo not drawn) [Compound 128]	400 nM
COc1cccc(CN2C(=O)N(C34CC5CC(CC(C5)C3)C4)C(=O)C2CCCC(=O)NO)c1O (stereo not drawn) [Compound 168]	430 nM
O=C(CCCC1C(=O)N(C23CC4CC(CC(C4)C2)C3)C(=O)N1CC1CC1)NO (stereo not drawn) [Compound 131]	430 nM
O=C(CCCC1C(=O)N(C23CC4CC(CC(C4)C2)C3)C(=O)N1Cc1ccccn1)NO (stereo not drawn) [Compound 174]	210 nM
O=C(CSCC1C(=O)N(C23CC4CC(CC(C4)C2)C3)C(=O)N1Cc1ccccn1)NO (stereo not drawn) [Compound 199]	290 nM
O=C(CCCC1C(=O)N(C23CC4CC(CC(C4)C2)C3)C(=O)N1CC1CCCCC1)NO (stereo not drawn) [Compound 127]	290 nM
O=C(CCCC1C(=O)N(C2CCCCC2)C(=O)N1Cc1ccccc1)NO (stereo not drawn) [Compound 107]	3330 nM

Other lines, results leading:

IC50	SMILES
260 nM	COc1ccc(O)c(CN2C(=O)N(C34CC5CC(CC(C5)C3)C4)C(=O)C2CCCC(=O)NO)c1 (stereo not drawn) [Compound 139]
1240 nM	O=C(CCCC1C(=O)N(C2CCCCC2)C(=O)N1Cc1cccc(O)c1)NO (stereo not drawn) [Compound 198]
1080 nM	O=C(CCCC1C(=O)N(C2CCCCC2)C(=O)N1Cc1ccccc1O)NO (stereo not drawn) [Compound 195]
600 nM	COc1ccccc1CN1C(=O)N(C23CC4CC(CC(C4)C2)C3)C(=O)C1CCCC(=O)NO (stereo not drawn) [Compound 163]
210 nM	O=C(CCCC1C(=O)N(C23CC4CC(CC(C4)C2)C3)C(=O)N1CC1=COCCC1)NO (stereo not drawn) [Compound 192]
770 nM	O=C(CCCC1C(=O)N(C23CC4CC(CC(C4)C2)C3)C(=O)N1Cc1ccccc1)NO (stereo not drawn) [Compound 102]
140 nM	O=C(CCCC1C(=O)N(C23CC4CC(CC(C4)C2)C3)C(=O)N1Cc1cccc(O)c1)NO (stereo not drawn) [Compound 161]
230 nM	O=C(CCCC1C(=O)N(C23CC4CC(CC(C4)C2)C3)C(=O)N1Cc1ccco1)NO (stereo not drawn) [Compound 176]
